Measurements from ChEMBL document CHEMBL4028801, “A multifactorial approach to hepatobiliary transporter assessment enables improved therapeutic compound development” (Toxicol Sci, 2013).

Columns and labels:
[1] = biological target: ATP-binding cassette sub-family C member 2 (Homo sapiens, UniProt Q92887); assay: Inhibition of human MRP2 overexpressed in Sf9 cell membrane vesicles assessed as uptake of [3H]-estradiol-17beta-D-glucuronide in presence of ATP and GSH measured after 20 mins by membrane vesicle transport assay
ATP-binding cassette sub-family C member 2, sequence (Q92887 whole entry): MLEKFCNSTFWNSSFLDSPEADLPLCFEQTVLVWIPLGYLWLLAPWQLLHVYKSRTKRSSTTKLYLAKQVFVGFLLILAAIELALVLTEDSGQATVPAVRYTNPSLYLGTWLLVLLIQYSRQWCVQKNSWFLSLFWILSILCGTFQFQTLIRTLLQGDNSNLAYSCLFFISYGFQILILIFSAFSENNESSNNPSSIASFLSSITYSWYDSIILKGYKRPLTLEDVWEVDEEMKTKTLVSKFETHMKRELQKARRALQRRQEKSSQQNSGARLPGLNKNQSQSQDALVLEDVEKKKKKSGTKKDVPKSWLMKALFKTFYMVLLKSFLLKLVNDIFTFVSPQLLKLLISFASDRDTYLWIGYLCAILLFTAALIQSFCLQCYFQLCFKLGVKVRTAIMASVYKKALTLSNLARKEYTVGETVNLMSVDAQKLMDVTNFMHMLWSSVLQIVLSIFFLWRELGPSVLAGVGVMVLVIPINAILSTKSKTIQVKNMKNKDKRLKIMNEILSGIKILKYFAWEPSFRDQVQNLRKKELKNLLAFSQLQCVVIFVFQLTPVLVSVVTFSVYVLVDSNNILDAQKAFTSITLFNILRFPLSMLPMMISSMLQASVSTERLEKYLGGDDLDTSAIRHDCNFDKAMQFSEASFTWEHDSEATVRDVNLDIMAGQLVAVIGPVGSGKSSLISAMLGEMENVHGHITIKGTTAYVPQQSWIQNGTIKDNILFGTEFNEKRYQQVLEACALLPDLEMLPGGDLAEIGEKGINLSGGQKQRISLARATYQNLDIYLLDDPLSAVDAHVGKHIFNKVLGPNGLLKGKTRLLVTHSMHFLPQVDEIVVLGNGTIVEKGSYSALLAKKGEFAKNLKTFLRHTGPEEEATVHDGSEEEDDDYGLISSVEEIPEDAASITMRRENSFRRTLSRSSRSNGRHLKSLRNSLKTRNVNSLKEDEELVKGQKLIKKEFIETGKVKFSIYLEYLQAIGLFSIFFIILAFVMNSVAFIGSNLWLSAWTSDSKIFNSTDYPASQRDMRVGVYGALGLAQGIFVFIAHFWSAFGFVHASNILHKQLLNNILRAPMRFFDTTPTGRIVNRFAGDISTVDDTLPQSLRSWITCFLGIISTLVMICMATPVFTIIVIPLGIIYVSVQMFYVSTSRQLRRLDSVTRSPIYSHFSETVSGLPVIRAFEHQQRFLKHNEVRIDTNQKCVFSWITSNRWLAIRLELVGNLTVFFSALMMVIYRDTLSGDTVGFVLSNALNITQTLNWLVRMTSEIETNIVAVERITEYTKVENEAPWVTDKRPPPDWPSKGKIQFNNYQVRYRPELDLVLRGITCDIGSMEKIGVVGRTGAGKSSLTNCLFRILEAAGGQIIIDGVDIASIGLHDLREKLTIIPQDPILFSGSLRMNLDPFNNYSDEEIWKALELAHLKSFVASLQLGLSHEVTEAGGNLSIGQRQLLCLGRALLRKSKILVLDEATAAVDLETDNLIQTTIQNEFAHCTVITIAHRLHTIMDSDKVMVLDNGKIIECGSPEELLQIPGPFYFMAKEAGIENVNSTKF

[2] = biological target: ATP-binding cassette sub-family C member 3 (Homo sapiens, UniProt O15438); assay: Inhibition of human MRP3 overexpressed in Sf9 insect cell membrane vesicles assessed as uptake of [3H]-estradiol-17beta-D-glucuronide in presence of ATP and GSH measured after 10 mins by membrane vesicle transport assay; assay type: ADME, cell-based
ATP-binding cassette sub-family C member 3, sequence (O15438 whole entry): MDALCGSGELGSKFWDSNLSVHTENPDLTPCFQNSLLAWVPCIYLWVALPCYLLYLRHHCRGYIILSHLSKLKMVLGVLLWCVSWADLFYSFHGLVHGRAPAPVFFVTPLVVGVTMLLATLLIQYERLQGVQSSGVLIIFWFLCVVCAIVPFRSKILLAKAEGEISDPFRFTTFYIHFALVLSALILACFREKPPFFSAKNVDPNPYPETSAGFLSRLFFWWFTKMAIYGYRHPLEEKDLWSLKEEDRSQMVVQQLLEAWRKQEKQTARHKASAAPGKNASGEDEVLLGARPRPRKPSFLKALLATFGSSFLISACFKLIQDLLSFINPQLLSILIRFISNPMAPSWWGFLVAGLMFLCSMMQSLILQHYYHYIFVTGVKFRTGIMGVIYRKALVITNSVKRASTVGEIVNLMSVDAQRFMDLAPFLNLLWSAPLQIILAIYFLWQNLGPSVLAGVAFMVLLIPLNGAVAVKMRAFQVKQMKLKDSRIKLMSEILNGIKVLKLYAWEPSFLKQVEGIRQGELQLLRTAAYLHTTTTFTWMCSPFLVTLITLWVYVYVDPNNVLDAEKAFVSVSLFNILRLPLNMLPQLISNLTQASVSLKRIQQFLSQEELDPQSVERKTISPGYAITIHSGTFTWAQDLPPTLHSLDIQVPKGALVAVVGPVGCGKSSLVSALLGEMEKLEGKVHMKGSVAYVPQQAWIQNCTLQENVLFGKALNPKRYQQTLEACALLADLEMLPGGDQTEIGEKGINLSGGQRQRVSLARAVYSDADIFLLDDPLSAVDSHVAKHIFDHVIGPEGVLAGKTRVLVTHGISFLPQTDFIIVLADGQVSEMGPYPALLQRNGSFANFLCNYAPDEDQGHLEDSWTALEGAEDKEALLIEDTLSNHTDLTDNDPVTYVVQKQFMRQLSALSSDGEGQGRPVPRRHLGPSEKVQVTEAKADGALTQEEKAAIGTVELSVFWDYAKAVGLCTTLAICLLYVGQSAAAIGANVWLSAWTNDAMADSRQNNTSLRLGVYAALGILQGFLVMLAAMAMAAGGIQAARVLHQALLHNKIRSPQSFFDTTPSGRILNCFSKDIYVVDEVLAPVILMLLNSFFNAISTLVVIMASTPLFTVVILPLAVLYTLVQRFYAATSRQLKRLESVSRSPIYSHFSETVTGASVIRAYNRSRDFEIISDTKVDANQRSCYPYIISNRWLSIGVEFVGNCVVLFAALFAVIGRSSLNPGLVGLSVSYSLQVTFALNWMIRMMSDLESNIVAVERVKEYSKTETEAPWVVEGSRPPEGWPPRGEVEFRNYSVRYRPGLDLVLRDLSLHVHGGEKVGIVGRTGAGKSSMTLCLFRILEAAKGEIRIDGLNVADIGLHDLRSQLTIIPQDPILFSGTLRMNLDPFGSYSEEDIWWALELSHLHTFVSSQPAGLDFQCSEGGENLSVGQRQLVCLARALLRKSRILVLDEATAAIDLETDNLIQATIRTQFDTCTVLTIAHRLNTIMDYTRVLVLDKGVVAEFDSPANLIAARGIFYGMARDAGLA

[3] = biological target: T1, ATP-binding cassette sub-family C member 4 (Homo sapiens, UniProt O15439); assay: Inhibition of human MRP4 overexpressed in Sf9 cell membrane vesicles assessed as uptake of [3H]-estradiol-17beta-D-glucuronide in presence of ATP and GSH measured after 20 mins by membrane vesicle transport assay; assay type: ADME, cell-based
T1 sequence (O15439 whole entry): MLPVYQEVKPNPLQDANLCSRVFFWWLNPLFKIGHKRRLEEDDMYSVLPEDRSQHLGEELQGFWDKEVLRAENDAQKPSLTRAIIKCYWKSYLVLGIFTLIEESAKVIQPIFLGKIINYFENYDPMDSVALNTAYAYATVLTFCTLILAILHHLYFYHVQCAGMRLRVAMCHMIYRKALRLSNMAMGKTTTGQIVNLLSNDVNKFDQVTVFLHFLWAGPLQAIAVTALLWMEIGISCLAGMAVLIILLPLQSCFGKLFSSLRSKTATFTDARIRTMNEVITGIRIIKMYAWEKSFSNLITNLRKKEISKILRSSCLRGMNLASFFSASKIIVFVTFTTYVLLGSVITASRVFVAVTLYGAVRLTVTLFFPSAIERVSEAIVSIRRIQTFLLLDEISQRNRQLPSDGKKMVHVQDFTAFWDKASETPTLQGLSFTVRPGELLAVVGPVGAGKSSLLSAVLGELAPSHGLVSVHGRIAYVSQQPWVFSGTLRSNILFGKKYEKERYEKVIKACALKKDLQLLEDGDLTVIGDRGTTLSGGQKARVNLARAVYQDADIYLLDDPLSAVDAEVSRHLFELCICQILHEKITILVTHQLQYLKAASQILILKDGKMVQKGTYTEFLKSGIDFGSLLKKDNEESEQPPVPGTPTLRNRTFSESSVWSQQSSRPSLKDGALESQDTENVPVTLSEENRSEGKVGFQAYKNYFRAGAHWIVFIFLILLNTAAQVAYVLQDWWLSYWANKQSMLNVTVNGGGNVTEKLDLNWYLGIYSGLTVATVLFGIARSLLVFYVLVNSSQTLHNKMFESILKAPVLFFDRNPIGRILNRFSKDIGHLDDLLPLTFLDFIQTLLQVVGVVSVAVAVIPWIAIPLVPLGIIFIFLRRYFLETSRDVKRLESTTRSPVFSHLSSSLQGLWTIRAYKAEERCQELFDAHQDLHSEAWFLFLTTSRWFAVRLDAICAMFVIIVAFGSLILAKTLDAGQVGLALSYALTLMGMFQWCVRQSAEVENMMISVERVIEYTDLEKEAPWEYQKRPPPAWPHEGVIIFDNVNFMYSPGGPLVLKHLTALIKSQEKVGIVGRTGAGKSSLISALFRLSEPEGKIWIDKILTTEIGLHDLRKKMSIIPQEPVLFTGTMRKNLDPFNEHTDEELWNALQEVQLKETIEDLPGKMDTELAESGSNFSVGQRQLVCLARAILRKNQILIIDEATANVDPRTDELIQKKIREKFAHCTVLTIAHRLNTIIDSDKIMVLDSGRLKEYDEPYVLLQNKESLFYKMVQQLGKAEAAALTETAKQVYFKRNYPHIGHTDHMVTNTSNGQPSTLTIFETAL

Compound	IC50 [1] [µM]	IC50 [2] [µM]	IC50 [3] [µM]
CN/C(=N/CCSCc1nc[nH]c1C)NC#N [CIMETIDINE]	> 133	> 133	> 133
OC(Cn1cncn1)(Cn1cncn1)c1ccc(F)cc1F [FLUCONAZOLE]	> 133	> 133	> 133
CC1(COc2ccc(CC3SC(=O)NC3=O)cc2)CCCCC1 (stereo not drawn) [CIGLITAZONE]	> 133	> 133	> 133
CCn1cc(C(=O)O)c(=O)c2cc(F)c(N3CCNCC3)cc21 [NORFLOXACIN]	> 133	> 133	> 133
CO[C@@]1(NC(=O)C2SC(=C(C(N)=O)C(=O)O)S2)C(=O)N2C(C(=O)O)=C(CSc3nnnn3C)CS[C@@H]21 (stereo partly drawn) [CEFOTETAN]		79	
CN1[C@@H]2CC[C@H]1C[C@@H](OC(=O)C(CO)c1ccccc1)C2 (mixture of isomers) [ATROPINE]	> 133	> 133	> 133
C[C@H](N[C@@H](CCc1ccccc1)C(=O)O)C(=O)N1CCC[C@H]1C(=O)O [ENALAPRILAT ANHYDROUS]	> 133	> 133	> 133
COc1ccc([C@@H]2Sc3ccccc3N(CCN(C)C)C(=O)[C@@H]2OC(C)=O)cc1 [DILTIAZEM]	> 133	> 133	> 133
NCCCC[C@H](N[C@@H](CCc1ccccc1)C(=O)O)C(=O)N1CCC[C@H]1C(=O)O [LISINOPRIL ANHYDROUS]	> 133	> 133	> 133
CN(C)CCC=C1c2ccccc2COc2ccccc21 [DOXEPIN]	> 133	> 133	> 133
CNCCCC12CCC(c3ccccc31)c1ccccc12 [MAPROTILINE]	> 133	> 133	> 133
CNCCC(Oc1ccc(C(F)(F)F)cc1)c1ccccc1 (stereo not drawn) [FLUOXETINE]	> 133	> 133	> 133
Clc1ccc2c(c1)CCc1cccnc1C2=C1CCNCC1 [DESLORATADINE]	> 133	> 133	> 133
C[C@@H](O)[C@H]1C(=O)N2C(C(=O)O)=C(S[C@@H]3CN[C@H](CNS(N)(=O)=O)C3)[C@H](C)[C@H]12 [DORIPENEM]	> 133	> 133	> 133
O=C(CCCN1CCC(O)(c2ccc(Cl)cc2)CC1)c1ccc(F)cc1 [HALOPERIDOL]		> 133	> 133
C(=C\c1ccccc1)/CN1CCN(C(c2ccccc2)c2ccccc2)CC1 [CINNARIZINE]	> 133	> 133	> 133
COC[C@H]1OC(=O)c2coc3c2[C@@]1(C)C1=C(C3=O)[C@@H]2CCC(=O)[C@@]2(C)C[C@H]1OC(C)=O [WORTMANNIN]	46.1	> 133	63.2
CCS(=O)(=O)CCn1c([N+](=O)[O-])cnc1C [TINIDAZOLE]	> 133	> 133	> 133
C#C[C@@]1(O)CC[C@H]2[C@@H]3CCC4=CC(=O)CC[C@@H]4[C@H]3CC[C@@]21C	> 133	> 133	> 133
C=C(CC)C(=O)c1ccc(OCC(=O)O)c(Cl)c1Cl [ETHACRYNIC ACID]	3.85	95.9	> 133
O=C(O)CCc1nc(-c2ccccc2)c(-c2ccccc2)o1 [OXAPROZIN]	> 133	> 133	
O=C(O)c1cc(/N=N/c2ccc(S(=O)(=O)Nc3ccccn3)cc2)ccc1O [SULFASALAZINE]		14.6	1.5
C[C@]12CC[C@@H]3c4ccc(O)cc4CC[C@H]3[C@@H]1CC[C@@H]2O [ESTRADIOL]		> 133	> 133
